Experimental data: patent US10618918B2, “Substituted boronic acids as antimicrobials” (priority 2015, dated 2020)
Read-outs that look alike come from different tables or passages of the source.

How the values were obtained:
[1] = molecular target: purified class A, C and D enzymes (β-lactamases) (Klebsiella pneumoniae, UniProt Q6XEC0); experiment: biochemical; type: biochemical; settings: purified OXA-48; nitrocefin (NCF) as reporter substrate
[2] = molecular target: T1, purified class A, C and D enzymes (β-lactamases) (Acinetobacter baumannii, UniProt Q9L4P2); experiment: biochemical; type: biochemical; settings: purified OXA-23; nitrocefin (NCF) as reporter substrate
T1 construct: rows headed: Ki (OXA-23, NCF), uM; other: purified OXA-23; nitrocefin (NCF) as reporter substrate
T1 sequence (Q9L4P2 whole entry): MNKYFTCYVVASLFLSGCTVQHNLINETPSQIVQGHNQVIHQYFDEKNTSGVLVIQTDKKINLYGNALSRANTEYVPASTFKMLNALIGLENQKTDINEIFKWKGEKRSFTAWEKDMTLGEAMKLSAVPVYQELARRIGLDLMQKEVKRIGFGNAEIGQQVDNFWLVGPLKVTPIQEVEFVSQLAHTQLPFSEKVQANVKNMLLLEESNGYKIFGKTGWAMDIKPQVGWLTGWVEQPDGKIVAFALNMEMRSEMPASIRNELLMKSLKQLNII

[3] = molecular target: purified class A, C and D enzymes (β-lactamases) (Klebsiella pneumoniae, UniProt Q9F663); experiment: biochemical; type: biochemical; settings: purified KPC-2; nitrocefin (NCF) as reporter substrate
[4] = molecular target: T2, purified class A, C and D enzymes (β-lactamases) (Pseudomonas aeruginosa, UniProt P24735); experiment: biochemical; type: biochemical
T2 construct: rows headed: Ki (Pa-AmpC, NCF), uM; other: purified Pa-AmpC; nitrocefin (NCF) as reporter substrate
T2 sequence (P24735 whole entry): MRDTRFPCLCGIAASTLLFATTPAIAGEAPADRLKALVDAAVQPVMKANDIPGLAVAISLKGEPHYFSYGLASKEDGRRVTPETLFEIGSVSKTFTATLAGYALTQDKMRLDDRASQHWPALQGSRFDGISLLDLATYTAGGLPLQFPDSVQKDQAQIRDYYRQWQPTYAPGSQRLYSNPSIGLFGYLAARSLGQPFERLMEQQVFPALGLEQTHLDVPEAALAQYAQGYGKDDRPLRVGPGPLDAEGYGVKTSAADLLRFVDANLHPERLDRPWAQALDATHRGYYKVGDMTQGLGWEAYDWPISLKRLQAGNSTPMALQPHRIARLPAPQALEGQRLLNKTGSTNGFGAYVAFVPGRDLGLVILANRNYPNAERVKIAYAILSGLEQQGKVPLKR

[5] = molecular target: purified class A, C and D enzymes (β-lactamases) (Escherichia coli, UniProt Q9L5C7); experiment: biochemical; type: biochemical; settings: purified CTX-M-14; nitrocefin (NCF) as reporter substrate
Sequence of purified class A, C and D enzymes (β-lactamases) (Escherichia coli, UniProt Q9L5C7) (Q9L5C7 entry or part of it): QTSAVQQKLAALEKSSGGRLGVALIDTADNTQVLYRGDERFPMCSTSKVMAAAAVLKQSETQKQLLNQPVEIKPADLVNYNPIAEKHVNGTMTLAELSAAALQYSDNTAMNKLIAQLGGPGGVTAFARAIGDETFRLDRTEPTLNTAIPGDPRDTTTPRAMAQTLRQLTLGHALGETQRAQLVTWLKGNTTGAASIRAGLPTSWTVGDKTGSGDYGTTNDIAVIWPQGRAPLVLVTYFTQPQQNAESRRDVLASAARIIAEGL

[6] = molecular target: purified class A, C and D enzymes (β-lactamases) (Enterobacter cloacae, UniProt P05364); experiment: biochemical; type: biochemical
Sequence of purified class A, C and D enzymes (β-lactamases) (Enterobacter cloacae, UniProt P05364) (P05364 21-381): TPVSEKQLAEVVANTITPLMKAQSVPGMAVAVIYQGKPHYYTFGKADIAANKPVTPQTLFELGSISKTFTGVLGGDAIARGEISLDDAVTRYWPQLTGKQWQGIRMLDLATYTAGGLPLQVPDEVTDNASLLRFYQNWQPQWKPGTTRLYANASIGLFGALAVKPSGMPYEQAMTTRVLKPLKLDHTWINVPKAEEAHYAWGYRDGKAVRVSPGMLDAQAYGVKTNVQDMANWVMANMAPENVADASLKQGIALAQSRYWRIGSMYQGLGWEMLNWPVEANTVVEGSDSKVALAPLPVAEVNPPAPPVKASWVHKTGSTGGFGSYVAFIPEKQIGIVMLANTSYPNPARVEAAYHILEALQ

[7] = system: ECL1002; experiment: Aztreonam potentiation (MPC@4), strain ECL1002; settings: minimum BLI concentration inhibiting growth with aztreonam 4 μg/mL; tested up to 40 μg/mL
[8] = system: ec308 SHV-5; experiment: Aztreonam potentiation (MPC@4), strain ec308 SHV-5; settings: minimum BLI concentration inhibiting growth with aztreonam 4 μg/mL; tested up to 40 μg/mL
[9] = system: KP1009 CTX-M-15; experiment: Aztreonam potentiation (MPC@4), strain KP1009 CTX-M-15; settings: minimum BLI concentration inhibiting growth with aztreonam 4 μg/mL; tested up to 40 μg/mL
[10] = system: ec302 TEM-10; experiment: Aztreonam potentiation (MPC@4), strain ec302 TEM-10; settings: minimum BLI concentration inhibiting growth with aztreonam 4 μg/mL; tested up to 40 μg/mL
[11] = system: KP1004 KPC-2; experiment: Biapenem potentiation (MPC@1), strain KP1004 KPC-2; type: cell-based; settings: minimum BLI concentration inhibiting growth with biapenem 1 μg/mL; tested up to 40 μg/mL
Procedure: (§1) Biapenem was present in the test medium at 1 μg/mL. […] Table 3 summarizes the BLI potency of biapenem potentiation (MPC@1) for two strains overexpressing class A (KPC) and class D (OXA-48) carbapenemases. Biapenem MIC for each strain is also shown.

[12] = system: AB1054 OXA-23; experiment: Meropenem potentiation (MPC@8), strain AB1054 OXA-23; type: cell-based, Acinetobacter baumannii; settings: minimum BLI concentration inhibiting growth with meropenem 8 μg/mL; tested up to 20 μg/mL
[13] = system: AB1053 OXA-72; experiment: Meropenem potentiation (MPC@8), strain AB1053 OXA-72; type: cell-based, Acinetobacter baumannii; settings: minimum BLI concentration inhibiting growth with meropenem 8 μg/mL; tested up to 20 μg/mL
[14] = system: KP1010 SHV-12; experiment: Aztreonam potentiation (MPC@4), strain KP1010 SHV-12; settings: minimum BLI concentration inhibiting growth with aztreonam 4 μg/mL; tested up to 40 μg/mL
[15] = system: EC1010 CMY-6; experiment: Aztreonam potentiation (MPC@4), strain EC1010 CMY-6; settings: minimum BLI concentration inhibiting growth with aztreonam 4 μg/mL; tested up to 40 μg/mL
[16] = system: KP1005 CTX-M-14; experiment: Tigemonam potentiation (MPC@4), strain KP1005 CTX-M-14; settings: minimum BLI concentration inhibiting growth with tigemonam 4 μg/mL; tested up to 40 μg/mL
[17] = system: KP1004 KPC-2; experiment: Aztreonam potentiation (MPC@4), strain KP1004 KPC-2; settings: minimum BLI concentration inhibiting growth with aztreonam 4 μg/mL; tested up to 40 μg/mL
[18] = system: KP1086 OXA-48; experiment: Biapenem potentiation (MPC@1), strain KP1086 OXA-48; type: cell-based; settings: minimum BLI concentration inhibiting growth with biapenem 1 μg/mL; tested up to 40 μg/mL
Procedure: as §1

SMILES	Ki (OXA-48, NCF), uM [1]	Ki [2] [nM]	Ki (KPC-2, NCF), uM [3]	Ki ([4]; purified Pa-AmpC, nitrocefin (NCF) as reporter substrate, read-out: Ki (Pa-AmpC, NCF)) [nM]	Ki (CTX-M-14, NCF), uM [5]	Ki (P99, NCF), uM ([6]; purified P99, nitrocefin (NCF) as reporter substrate)	AZT MPC4 ECL1002 [7]	AZT MPC4 SHV-5 ec308 [8]	AZT MPC4 CTX-M-15 KP1009 [9]	AZT MPC4 TEM-10 ec302 [10]	BPM MPC1 KP1004 KPC-2 [11]	MPM MPC8 AB1054 OXA-23 [12]	MPM MPC8 AB1053 OXA-72 [13]	AZT MPC4 SHV-12 KP1010 [14]	AZT MPC4 CMY-6 EC1010 [15]	TIG MPC4 CTX-M-14 KP1005 [16]	AZT MPC4 KPC-2 KP1004 [17]	BPM MPC1 OXA-48 KP1086 [18]	Ki [4] [nM]	Ki (P99, NCF), uM [6]
COc1c(F)cc2c(c1C(=O)O)OB(O)CC2 [Compound 34, 6-Fluoro-2-hydroxy-7-methoxy-3,4-dihydro-1,2-benzoxaborinine-8-carboxylic acid]	X (X = Ki ≤ 0.1 μM)	< 100	X (X = Ki ≤ 0.1 μM)	< 100	X (X = Ki ≤ 0.1 μM)	X (X = Ki ≤ 0.1 μM)	X (X = MPC@4 ≤ 5 μg/mL)	X (X = MPC@4 ≤ 5 μg/mL)	X (X = MPC@4 ≤ 5 μg/mL)	X (X = MPC@4 ≤ 5 μg/mL)	X (X = MPC@1 ≤ 5 μg/mL)	X (X = MPC@1 ≤ 5 μg/mL)	X (X = MPC@1 ≤ 5 μg/mL)	X (X = MPC@4 ≤ 5 μg/mL)	X (X = MPC@4 ≤ 5 μg/mL)	Z (Z = MPC@4 > 20 μg/mL)	X (X = MPC@4 ≤ 5 μg/mL)	X (X = MPC@1 ≤ 5 μg/mL)		
O=C([O-])c1c(C(F)F)ccc2c1O[B-](O)(O)CC2.[Na+].[Na+] [Compound 50, Disodium; 8-(difluoromethyl)-4,4-dihydroxy-5-oxa-4-boranuidabicyclo[4.4.0]deca-1(6),7,9-triene-7-carboxylate]	X (X = Ki ≤ 0.1 μM)	< 100	X (X = Ki ≤ 0.1 μM)		X (X = Ki ≤ 0.1 μM)		X (X = MPC@4 ≤ 5 μg/mL)	X (X = MPC@4 ≤ 5 μg/mL)	X (X = MPC@4 ≤ 5 μg/mL)	X (X = MPC@4 ≤ 5 μg/mL)	X (X = MPC@1 ≤ 5 μg/mL)	Y (Y = 5 μg/mL < MPC@1 ≤ 20 μg/mL)	Y (Y = 5 μg/mL < MPC@1 ≤ 20 μg/mL)	X (X = MPC@4 ≤ 5 μg/mL)	X (X = MPC@4 ≤ 5 μg/mL)	X (X = MPC@4 ≤ 5 μg/mL)	X (X = MPC@4 ≤ 5 μg/mL)	X (X = MPC@1 ≤ 5 μg/mL)	< 100	X (key: X = Ki ≤ 0.1 μM; Y = 0.1 μM < Ki ≤ 1 μM; Z = Ki > 1 μM)
O=C([O-])c1c(OCCN2CCOCC2)ccc2c1O[B-](O)(O)CC2.[Na+].[Na+] [Compound 27, Disodium; 4,4-dihydroxy-8-(2-morpholinoethoxy)-5-oxa-4-boranuidabicyclo[4.4.0]deca-1(6),7,9-triene-7-carboxylate]	X (X = Ki ≤ 0.1 μM)	< 100	X (X = Ki ≤ 0.1 μM)		X (X = Ki ≤ 0.1 μM)		X (X = MPC@4 ≤ 5 μg/mL)	Y (Y = 5 μg/mL < MPC@4 ≤ 20 μg/mL)	Y (Y = 5 μg/mL < MPC@4 ≤ 20 μg/mL)	Y (Y = 5 μg/mL < MPC@4 ≤ 20 μg/mL)	X (X = MPC@1 ≤ 5 μg/mL)	Y (Y = 5 μg/mL < MPC@1 ≤ 20 μg/mL)	Y (Y = 5 μg/mL < MPC@1 ≤ 20 μg/mL)	X (X = MPC@4 ≤ 5 μg/mL)	X (X = MPC@4 ≤ 5 μg/mL)	Z (Z = MPC@4 > 20 μg/mL)	X (X = MPC@4 ≤ 5 μg/mL)	Y (Y = 5 μg/mL < MPC@1 ≤ 20 μg/mL)	100 to 1000	X (key: X = Ki ≤ 0.1 μM; Y = 0.1 μM < Ki ≤ 1 μM; Z = Ki > 1 μM)
[2H]C1([2H])Cc2ccc(OC)c(C(=O)[O-])c2O[B-]1(O)O.[Na+].[Na+] [Compound 60, Disodium; 3,3-dideuterio-4,4-dihydroxy-8-methoxy-5-oxa-4-boranuidabicyclo[4.4.0]deca-1(10),6,8-triene-7-carboxylate]	X (X = Ki ≤ 0.1 μM)	< 100	X (X = Ki ≤ 0.1 μM)		X (X = Ki ≤ 0.1 μM)		X (X = MPC@4 ≤ 5 μg/mL)	X (X = MPC@4 ≤ 5 μg/mL)	X (X = MPC@4 ≤ 5 μg/mL)	X (X = MPC@4 ≤ 5 μg/mL)	X (X = MPC@1 ≤ 5 μg/mL)	X (X = MPC@1 ≤ 5 μg/mL)	X (X = MPC@1 ≤ 5 μg/mL)	X (X = MPC@4 ≤ 5 μg/mL)	X (X = MPC@4 ≤ 5 μg/mL)	X (X = MPC@4 ≤ 5 μg/mL)	X (X = MPC@4 ≤ 5 μg/mL)	X (X = MPC@1 ≤ 5 μg/mL)	< 100	X (key: X = Ki ≤ 0.1 μM; Y = 0.1 μM < Ki ≤ 1 μM; Z = Ki > 1 μM)
CS(=O)(=O)Nc1ccc2c(c1C(=O)[O-])O[B-](O)(O)CC2.[Na+].[Na+] [Compound 51, Disodium; 4,4-dihydroxy-8-(methanesulfonamido)-5-oxa-4-boranuidabicyclo[4.4.0]deca-1(6),7,9-triene-7-carboxylate]	X (X = Ki ≤ 0.1 μM)	< 100	X (X = Ki ≤ 0.1 μM)		X (X = Ki ≤ 0.1 μM)		Z (Z = MPC@4 > 20 μg/mL)	X (X = MPC@4 ≤ 5 μg/mL)	Y (Y = 5 μg/mL < MPC@4 ≤ 20 μg/mL)	X (X = MPC@4 ≤ 5 μg/mL)	X (X = MPC@1 ≤ 5 μg/mL)	Z (Z = MPC@1 > 20 μg/mL)	Z (Z = MPC@1 > 20 μg/mL)	X (X = MPC@4 ≤ 5 μg/mL)	Y (Y = 5 μg/mL < MPC@4 ≤ 20 μg/mL)	Z (Z = MPC@4 > 20 μg/mL)	Y (Y = 5 μg/mL < MPC@4 ≤ 20 μg/mL)	X (X = MPC@1 ≤ 5 μg/mL)	< 100	X (key: X = Ki ≤ 0.1 μM; Y = 0.1 μM < Ki ≤ 1 μM; Z = Ki > 1 μM)
NS(=O)(=O)Nc1ccc2c(c1C(=O)[O-])O[B-](O)(O)CC2.[Na+].[Na+] [Compound 52, Disodium; 4,4-dihydroxy-8-(sulfamoylamino)-5-oxa-4-boranuidabicyclo[4.4.0]deca-1(6),7,9-triene-7-carboxylate]	X (X = Ki ≤ 0.1 μM)	100 to 1000	X (X = Ki ≤ 0.1 μM)		X (X = Ki ≤ 0.1 μM)		X (X = MPC@4 ≤ 5 μg/mL)	Y (Y = 5 μg/mL < MPC@4 ≤ 20 μg/mL)	Y (Y = 5 μg/mL < MPC@4 ≤ 20 μg/mL)	Y (Y = 5 μg/mL < MPC@4 ≤ 20 μg/mL)	X (X = MPC@1 ≤ 5 μg/mL)	Z (Z = MPC@1 > 20 μg/mL)	Z (Z = MPC@1 > 20 μg/mL)	X (X = MPC@4 ≤ 5 μg/mL)	X (X = MPC@4 ≤ 5 μg/mL)	Z (Z = MPC@4 > 20 μg/mL)	X (X = MPC@4 ≤ 5 μg/mL)	X (X = MPC@1 ≤ 5 μg/mL)	< 100	X (key: X = Ki ≤ 0.1 μM; Y = 0.1 μM < Ki ≤ 1 μM; Z = Ki > 1 μM)
